Measurements: patent US12509467B2 (Hoffmann-La Roche Inc., priority 2020, dated 2025)
Like-named read-outs stand apart in the source and are kept apart here.

Target: T1, human cGAS (residues 161-522) (Homo sapiens, UniProt Q8N884)
T1 construct: Recombinantly expressed purified human cGAS (residues 161-522) was used at 25 nM; made in house
Experiment: cGAS Activity Assay—Malachite Green
Assay type: biochemical
Experimental: Compounds were tested for cGAS inhibition in a coupled enzymatic assay based on Phosphate detection by Malachite Green. Final assay conditions were 20 mM TRIS pH 7.5 (Applichem), 5 mM MgCl2 (Sigma) and 0.01% BSA (Sigma) supplemented with 80 μM ATP (Sigma), 80 μM GTP (Sigma) and 100 nM Interferon Stimulating DNA (ISD) (Microsynth).
1 μL of DMSO dilution series was transferred to 32.3 μL reaction buffer, mixed by pipetting up/down, spun for 1 minute at 3000 rpm and was visually inspected for precipitation. 5 μL of 3-fold enzyme stock solution were transferred to an empty 384-well Black/Clear Flat Bottom Polystyrene NBS (Corning) rows 3-24. Rows 1-2 were filled with assay buffer. Plates were spun 10 seconds at 1000 rpm (164×g). 5 μL of compound intermediate dilution was added and mixed by pipetting up/down to rows 3-24. Rows 1-2 were filled with 3.1% DMSO assay buffer. Plates were spun 10 seconds at 1000 rpm (164×g). 5 μL 3-fold Nucleotide/DNA mix was added to all wells to start the reaction. Plates were spun 10 seconds at 1000 rpm (164×g) and incubated for 4 hour at room temperature (RT) in the dark. 5 μL 4 U/mL PPase (Sigma) were added to all wells. Plates spun 10 seconds at 1000 rpm (164×g). 10 μL BioMol green Solution (Enzo Life Sciences) was added to all wells. Plates spun 10 seconds at 1000 rpm (164×g) and incubated 30 minutes at RT in the dark. Absorbance data was collected 620 nm on an EnVision Multilable Reader (Perkin Elmer) and the following measurement settings were used: excitation filter photometric was 620 nm; excitation from the top; measurement height was 1 mm; number of flashes was 30; number of flashes integrated was 1.
All plates are checked for abnormalities and outliers in the Blank Control (no protein, row 1) and the Neutral Control (no compound, row 2) are excluded using the 3*SD rule.
Table 5 provides IC50 values (μM) for cGAS inhibition obtained for particular examples of the present invention as measured by the above-described assay.

[1] = cGAS inhibition, 25 nM cGAS, 80 μM ATP, 80 μM GTP, 100 nM ISD, 4 hour at RT, Malachite Green phosphate detection, read-out: IC50 cGAS

T1 sequence (Q8N884 161-522): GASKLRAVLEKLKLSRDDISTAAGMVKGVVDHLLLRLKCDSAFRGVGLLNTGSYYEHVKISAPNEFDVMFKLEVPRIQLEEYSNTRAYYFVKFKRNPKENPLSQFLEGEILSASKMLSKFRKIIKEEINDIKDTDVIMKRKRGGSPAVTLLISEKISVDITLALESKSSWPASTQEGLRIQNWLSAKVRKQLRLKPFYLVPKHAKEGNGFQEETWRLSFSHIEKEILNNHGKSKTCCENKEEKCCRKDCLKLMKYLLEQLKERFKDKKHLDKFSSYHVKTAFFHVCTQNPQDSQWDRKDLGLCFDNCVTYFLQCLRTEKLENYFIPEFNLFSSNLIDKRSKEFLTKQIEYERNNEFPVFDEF

Structure (SMILES): CCCc1cc(=O)n2nc(NCc3ccc(-c4ccccc4)cc3F)nc2[nH]1 [Example 1, 2-[(2-Fluoro-4-phenyl-phenyl)methylamino]-5-propyl-4H-[1,2,4]triazolo[1,5-a]pyrimidin-7-one]
- IC50 [1]: 744 nM

Structure (SMILES): CCCc1cc(=O)n2nc(NCc3ccc(-c4ncccn4)cc3)nc2[nH]1 [Example 2, 5-propyl-2-[(4-pyrimidin-2-yl-phenyl)methylamino]-4H-[1,2,4]-triazolo[1,5-a]pyrimidin-7-one;]
- IC50 [1]: 4380 nM

Structure (SMILES): O=c1cc(CC2CCC2)[nH]c2nc(NCc3ccc(-c4ccccc4)cc3)nn12 [Example 3, 5-(cyclobutylmethyl)-2-[(4-phen-ylphenyl)methylamino]-4H-[1,2,4]triazolo[1,5-a]pyrimidin-7-one]
- IC50 [1]: 1570 nM

Structure (SMILES): CCCc1cc(=O)n2nc(NCc3ccc(-c4ccccc4)cc3Cl)nc2[nH]1 [Example 4]
- IC50: 765 nM

Structure (SMILES): CCCc1cc(=O)n2nc(NCc3ccc(-n4cccn4)cc3)nc2[nH]1 [Example 5, 5-propyl-2-[(4-pyrazol-1-yl-phenyl)methylamino]-4H-[1,2,4]-triazolo[1,5-a]pyrimidin-7-one]
- IC50 [1]: 4010 nM

Structure (SMILES): CCCc1cc(=O)n2nc(NCc3ccc(OC)cc3F)nc2[nH]1 [Example 6, 2-[(2-fluoro-4-methoxyphenyl)-methylamino]-5-propyl-4H-[1,2,4]triazolo[1,5-a]pyrimidin-7-one]
- IC50 [1]: 2910 nM

Structure (SMILES): CCCc1cc(=O)n2nc(NCc3ccc(C#N)cc3Cl)nc2[nH]1 [Example 7, 3-chloro-4-[[(7-oxo-5-propyl-4H-[1,2,4]triazolo[1,5-a]-pyrimidin-2-yl)amino]methyl]-benzonitrile]
- IC50 [1]: 2420 nM

Structure (SMILES): CCCc1cc(=O)n2nc(NCc3ccc(OCC(F)(F)F)cc3)nc2[nH]1 [Example 8, 5-propyl-2-[[4-(2,2,2-trifluoro-ethoxy)phenyl]methyllamino]-4H-[1,2,4]triazolo[1,5-a]-pyrimidin-7-one]
- IC50: 7780 nM

Structure (SMILES): CCCc1cc(=O)n2nc(NCc3ccc(-n4ccnc4)cc3)nc2[nH]1 [Example 9, 2-[(4-imidazol-1-ylphenyl)meth-ylamino]-5-propyl-4H-[1,2,4]-triazolo[1,5-a]pyrimidin-7-one]
- IC50 [1]: 4010 nM

Structure (SMILES): CCCc1cc(=O)n2nc(NCc3ccc(OC4CC4)cc3)nc2[nH]1 [Example 10, 2-[[4-(cyclopropoxy)phenyl]-methylamino]-5-propyl-4H-[1,2,4]triazolo[1,5-a]pyrimidin-7-one]
- IC50 [1]: 4080 nM

Structure (SMILES): CCCc1cc(=O)n2nc(NCc3ccc(OCC)cc3Cl)nc2[nH]1 [Example 11]
- IC50: 1340 nM

Structure (SMILES): CCCc1cc(=O)n2nc(NCc3cc(-c4ccn(C)n4)ccc3F)nc2[nH]1 [Example 12, 2-[[2-fluoro-5-(1-methylpyrazol-3-yl)phenyl]methylamino]-5-propyl-4H-[1,2,4]triazolo[1,5-a]pyrimidin-7-one]
- IC50 [1]: 602 nM

Structure (SMILES): CCCc1cc(=O)n2nc(NCc3cccc(-c4ccn(C)n4)c3)nc2[nH]1 [Example 13, 2-[[3-(1-methylpyrazol-3-yl)-phenyl]methylamino]-5-propyl-4H-[1,2,4]triazolo[1,5-a]-pyrimidin-7-one]
- IC50: 1940 nM

Structure (SMILES): CCCc1cc(=O)n2nc(NCc3ccc(-c4ccn(C)n4)cc3)nc2[nH]1 [Example 14, 2-[[4-(1-methylpyrazol-3-yl)-phenyl]methylamino]-5-propyl-4H-[1,2,4]triazolo[1,5-a]-pyrimidin-7-one]
- IC50 [1]: 4920 nM

Structure (SMILES): CCCc1cc(=O)n2nc(NCc3ccc(OCc4ccccc4)cc3Cl)nc2[nH]1 [Example 15]
- IC50: 4000 nM

Structure (SMILES): CCCc1cc(=O)n2nc(NCc3cccc(-c4ccccc4)c3)nc2[nH]1 [Example 16, 2-[(3-phenylphenyl)methyl-amino]-5-propyl-4H-[1,2,4]-triazolo[1,5-a]pyrimidin-7-one]
- IC50 [1]: 2560 nM

Structure (SMILES): CCCc1cc(=O)n2nc(NCc3ccc(OCc4ccccc4)cc3)nc2[nH]1 [Example 17, 2-[(4-benzyloxyphenyl)methyl-amino]-5-propyl-4H-[1,2,4]-triazolo[1,5-a]pyrimidin-7-one]
- IC50: 4080 nM

Structure (SMILES): Cn1ccc(-c2ccc(CNc3nc4[nH]c(C(F)(F)F)cc(=O)n4n3)cc2)n1 [Example 18, 2-[[4-(1-methylpyrazol-3-yl)-phenyl]methylamino]-5-(trifluoromethyl)-4H-[1,2,4]-triazolo[1,5-a]pyrimidin-7-one]
- IC50 [1]: 2820 nM

Structure (SMILES): Cn1ccc(-c2ccc(Cl)c(CNc3nc4[nH]c(C(F)(F)F)cc(=O)n4n3)c2)n1 [Example 19, 2-[[2-chloro-5-(1-methylpyrazol-3-yl)phenyl]methylamino]-5-(trifluoromethyl)-4H-[1,2,4]-triazolo[1,5-a]pyrimidin-7-one]
- IC50 [1]: 663 nM

Structure (SMILES): Cn1ccc(-c2ccc(F)c(CNc3nc4[nH]c(C(F)(F)F)cc(=O)n4n3)c2)n1 [Example 20, 2-[[2-fluoro-5-(1-methylpyrazol-3-yl)phenyl]methylamino]-5-(trifluoromethyl)-4H-[1,2,4]-triazolo[1,5-a]pyrimidin-7-one]
- IC50 [1]: 1240 nM

Structure (SMILES): CCCc1cc(=O)n2nc(NCc3cc(-c4cccnc4)ccc3Cl)nc2[nH]1 [Example 21, 2-[[2-chloro-5-(3-pyridyl)phen-yl]-methylamino]-5-propyl-4H-[1,2,4]triazolo[1,5-a]pyrimidin-7-one]
- IC50: 744 nM

Structure (SMILES): CCCc1cc(=O)n2nc(NCc3ccc4ncccc4c3)nc2[nH]1 [Example 22, 5-propyl-2-(6-quinolylmethyl-amino)-4H-[1,2,4]triazolo[1,5-a]pyrimidin-7-one]
- IC50 [1]: 3000 nM

Structure (SMILES): CCCc1cc(=O)n2nc(NCc3cc(-c4ccccc4)ccc3Cl)nc2[nH]1 [Example 23, 2-[(2-chloro-5-phenylphenyl)-methylamino]-5-propyl-4H-[1,2,4]triazolo[1,5-a]pyrimidin-7-one]
- IC50 [1]: 2440 nM

Structure (SMILES): CCCc1cc(=O)n2nc(NCc3cc(-c4cnn(C)c4)ccc3Cl)nc2[nH]1 [Example 24, 2-[[2-chloro-5-(1-methylpyrazol-4-yl)phenyl]methylamino]-5-propyl-4H-[1,2,4]triazolo[1,5-a]pyrimidin-7-one]
- IC50 [1]: 401 nM

Structure (SMILES): CCCc1cc(=O)n2nc(NCc3cc(-c4ccncc4)ccc3Cl)nc2[nH]1 [Example 25, 2-[[2-chloro-5-(4-pyridyl)phen-yl]methylamino]-5-propyl-4H-[1,2,4]triazolo[1,5-a]pyrimidin-7-one]
- IC50: 287 nM

Structure (SMILES): Cn1ccc(-c2ccc(Cl)c(CNc3nc4[nH]c(CCc5ccccc5)cc(=O)n4n3)c2)n1 [Example 26, 2-[[2-chloro-5-(1-methylpyrazol-3-yl)phenyl]methylamino]-5-(2-phenylethyl)-4H-[1,2,4]-triazolo[1,5-a]pyrimidin-7-one]
- IC50: 1600 nM

Structure (SMILES): Cn1ccc(-c2ccc(Cl)c(CNc3nc4[nH]c(Cc5ccccc5)cc(=O)n4n3)c2)n1 [Example 27]
- IC50 [1]: 178 nM

Structure (SMILES): CCCc1cc(=O)n2nc(NCc3cc(-c4ccn(C)n4)ccc3OC)nc2[nH]1 [Example 28, 2-[[2-methoxy-5-(1-methyl-pyrazol-3-yl)phenyl]methyl-amino]-5-propyl-4H-[1,2,4]-triazolo[1,5-a]pyrimidin-7-one]
- IC50 [1]: 1910 nM

Structure (SMILES): CCCc1cc(=O)n2nc(NCc3cc(-c4ccccn4)ccc3Cl)nc2[nH]1 [Example 29, 2-[[2-chloro-5-(2-pyridyl)phen-yl]methylamino]-5-propyl-4H-[1,2,4]triazolo[1,5-a]pyrimidin-7-one]
- IC50: 668 nM

Structure (SMILES): CCCc1cc(=O)n2nc(NCc3cc(-c4cn(C)cn4)ccc3Cl)nc2[nH]1 [Example 30, 2-[[2-chloro-5-(1-methylimid-azol-4-yl)phenyl]methylamino]-5-propyl-4H-[1,2,4]triazolo[1,5-a]pyrimidin-7-one]
- IC50: 444 nM

Structure (SMILES): O=c1cc(Cc2ccccc2)[nH]c2nc(NCc3cc(-c4ccncc4)ccc3Cl)nn12 [Example 31, 5-benzyl-2-[[2-chloro-5-(4-pyridyl)phenyl]methylamino]-4H-[1,2,4]triazolo[1,5-a]-pyrimidin-7-one]
- IC50 [1]: 78 nM

Structure (SMILES): CCCCc1cc(=O)n2nc(NCc3cc(-c4ccn(C)n4)ccc3Cl)nc2[nH]1 [Example 32, 5-butyl-2-[[2-chloro-5-(1-methyl-pyrazol-3-yl)phenyl]methyl-amino]-4H-[1,2,4]triazolo[1,5-a]pyrimidin-7-one]
- IC50 [1]: 162 nM

Structure (SMILES): CCc1cc(=O)n2nc(NCc3cc(-c4ccn(C)n4)ccc3Cl)nc2[nH]1 [Example 33, 2-[[2-chloro-5-(1-methylpyrazol-3-yl)phenyl]methylamino]-5-ethyl-4H-[1,2,4]triazolo[1,5-a]pyrimidin-7-one]
- IC50 [1]: 816 nM

Structure (SMILES): Cc1cc(=O)n2nc(NCc3cc(-c4ccn(C)n4)ccc3Cl)nc2[nH]1 [Example 34, 2-[[2-chloro-5-(1-methylpyrazol-3-yl)phenyl]methylamino]-5-methyl-4H-[1,2,4]triazolo[1,5-a]-pyrimidin-7-one]
- IC50 [1]: 2110 nM
